Test results published in patent publication US6969583B2, “Method for detecting variant HBV” (Melbourne Health, priority 2000, dated 2005).
Like-named read-outs stand apart in the source and are kept apart here.

What was measured:
Assay type in all cases: cell-based, Hepatitis B virus
[1] = system: L526M/M550V recombinant HBV-baculovirus; experiment: Antiviral testing, L526M/M550V recombinant HBV-baculovirus in HepG2 cells (Example 17); settings: Hepatitis B virus, HepG2, intracellular single-stranded HBV DNA, NDR = no dose response, read-out: IC50 (μM), IC SS
Protocol: (§1) HepG2 cells were seeded at approximately 20-40% confluency and then were grown for 16-24 hours before infection. On the day of infection, triplicate plates of cells were trypsinized, and viable cell number was determined with a hemocytometer using Trypan blue exclusion. Average cell counts were calculated and used to determine the volume of high-titer viral stock necessary to infect cells at the indicated moi. HepG2 cells were washed one time with serum-free MEM to remove traces of serum. Baculovirus was diluted into MEM without serum to achieve the appropriate moi using volumes of 1.0, 0.5, and 0.25 ml to infect 100-mm, 60 mm, and 35-mm dishes, respectively. Baculovirus was adsorbed to HepG2 cells for one hour at 37° C. with gentle rocking every 15 minutes to ensure that the inoculum was evenly distributed. The inoculum was then aspirated and HepG2 cells were washed two times with phosphate-buffered saline and refed MEM-FBS with or without various concentrations of agents.
(§2) HBV core particles were isolated from the cytoplasmic fraction of HepG2 cells lysed in 0.5% w/v NP-40. […]
(§3) Conditioned medium was collected from HepG2 cells and subjected to centrifugation at 6,000 g for five minutes to remove cellular debris. […] DNA was then analyzed by electrophoresis and Southern blotting. […]

[2] = system: wild-type HBV baculovirus; experiment: Antiviral testing with wild-type HBV baculovirus in HepG2 cells (Example 15, Southern blot densitometry)
Protocol: as §1
(§4) HBV core particles were isolated from the cytoplasmic fraction of HepG2 cells lysed in 0.5% w/v NP-40. Cytoplasmic extracts were adjusted to 10 mmol/l McC12 and unprotected DNA was removed by an incubation to […] for 1.5 hours at 37° C. Following sequential phenol and chloroform extractions, nucleic acids were recovered by ethanol precipitation. Nucleic acids were resuspended in 50 μl/l TE (10 mmol/l Tris, 1 mmol/l ethylenedianinetetraacetic acid), normalized by OD260, and digested with 100 μg/ml RNase (Boehringer Mannheim, Indianapolis, Ind.) for one hour at 37° C. before analysis by electrophoresis and Southern blotting. A BioRad GS-670 imaging densitometer and the Molecular Analyst software (BioRad, Hecules Calif.) was used to analyze suitable exposures of Southern blots. Densitometry data was fitted to logistic dose response curves using the TableCurve2D software package from Jandel Scientific. Logistic dose response equations were used to calculate IC50 and IC90 values and co-efficients of variation.
(§5) 3TC and PCV were a gift from Klaus Esser, SmithKline Beecham, Collegeville, Pa. PMEA was obtained from Gilead (Foster City, Calif.). 3TC was resuspended in sterile water, aliquoted, and frozen at −20° C. to avoid repeated freezing and thawing of the drug. PMEA was resuspended in sterile water after the pH was adjusted to 7.0 with NaOH. PCV was resuspended in dimethyl sulphoxide. Medium containing 3TC was prepared daily as needed using fresh aliquots of 3TC. In experiments in which 3TC treatment was initiated after viral infection, HepG2 cells were exposed to the indicated concentration of 3TC immediately after infection with HBV baculovirus. In experiments utilizing pretreatment with 3TC, cells were fed medium containing 3TC 16 hours prior to HBV baculovirus infection, HBV baculovirus infection was also carried out in medium containing 3TC, and cells were refed fresh medium containing 3TC immediately after completion of the infection and washing procedures. Treatment with PMEA and PCV were conducted in a similar manner.
The dose effect of 3TC and PMEA, on wild-type HBV is shown graphically in FIG. 6 (A, B,) and a Southern Blot of intracellular HBV replicative intermediates and extracellular virus produced by HepG2 cells transduced with wild-type HBV-baculovirus in the presence of increasing concentrations of PCV is shown in FIG. 6C and the IC50 for each antiviral agent is shown in Table 2.

[3] = system: L526M/M550V HBV baculovirus; experiment: Antiviral testing with L526M/M550V HBV baculovirus in HepG2 cells (Example 15)
Protocol: as §1, §4, §5

[4] = system: Precore/M550I recombinant HBV-baculovirus; experiment: Antiviral testing, Precore/M550I recombinant HBV-baculovirus in HepG2 cells (Example 17); settings: Hepatitis B virus, NDR = no dose response
Protocol: as §1, §4
(§6) Conditioned medium was collected from HepG2 cells and subjected to centrifugation at 6,000 g for five minutes to remove cellular debris. HBV particles were precipitated with 10% w/v PEG 8000 and were concentrated by centrifugation at 12,000 ×g. Viral pellets were resuspended us 1 ml of MEM-FBS and divided into two aliquots. One set of aliquots was treated with 750 μg/ml Pronase for one hour and then with […] DNase 1 for one hour. Both sets of aliquots were then digested with Proteinase K, and extracted with phenol and chloroform. DNA was precipitated with 0.1 volume of 3 mol/l sodium acetate and 1 volume of isopropanol. Ten micrograms of transfer RNA was added as a carrier during precipitation. […] DNA was then analyzed by electrophoresis and Southern blotting. […]

[5] = system: precore (G1896A) recombinant HBV-baculovirus; experiment: Antiviral testing of the precore mutant (G1896A) HBV baculovirus in HepG2 cells (Example 17)
Protocol: as §1, §4
(§7) Conditioned medium was collected from HepG2 cells and subjected to centrifugation at 6,000 g for five minutes to remove cellular debris. HBV particles were precipitated with 10% w/v PEG 8000 and were concentrated by centrifugation at 12,000 ×g. Viral pellets were resuspended us 1 ml of MEM-FBS and divided into two aliquots. One set of aliquots was treated with 750 μg/ml Pronase for one hour and then with […] DNase 1 for one hour. Both sets of aliquots were then digested with Proteinase K, and extracted with phenol and chloroform. DNA was precipitated with 0.1 volume of 3 mol/l sodium acetate and 1 volume of isopropanol. Ten micrograms of transfer RNA was added as a carrier during precipitation. Pellets were resuspended in 25 μl of TE and digested with 0.5 mg/ml RNase for one hour. DNA was then analyzed by electrophoresis and Southern blotting.
as §5

[6] = system: L526M HBV baculovirus; experiment: Antiviral testing with L526M HBV baculovirus in HepG2 cells (Example 15)
Protocol: as §1, §4, §5

[7] = system: Precore/L526M/M550V recombinant HBV-baculovirus; experiment: Antiviral testing, Precore/L526M/M550V recombinant HBV-baculovirus in HepG2 cells (Example 17); settings: Hepatitis B virus, NDR = no dose response
Protocol: as §1, §4, §6

[8] = system: M550I HBV baculovirus; experiment: Antiviral testing with M550I HBV baculovirus in HepG2 cells (Example 15)
Protocol: as §1, §4, §5

[9] = system: wild-type (WT) recombinant HBV-baculovirus; experiment: Antiviral testing, wild-type (1.3x genomic length) recombinant HBV-baculovirus in HepG2 cells (Example 17)
Protocol: as §1, §4, §7, §5

[10] = system: M550I recombinant HBV-baculovirus; experiment: Antiviral testing, M550I recombinant HBV-baculovirus in HepG2 cells (Example 17); settings: Hepatitis B virus, HepG2, intracellular single-stranded HBV DNA, NDR = no dose response, read-out: IC50 (μM), IC SS
Protocol: as §1, §2, §3

[11] = HepG2, extracellular relaxed circular HBV DNA, read-out: IC50 (μM), EC RC
[12] = HepG2, intracellular single-stranded HBV DNA, read-out: IC50 (μM), IC SS

`Nc1ncnc2c1ncn2CCOCP(=O)(O)O` [Adefovir, 9-(2-phosphonylmethoxyethyl)adenine] gave an IC50 [1] of 0.93 µM, an inhibition at 1 µM ([2]; Hepatitis B virus, HepG2, wt HBV, ds HBV DNA band density vs untreated controls, estimated from fitted curve, negative = stimulation of replication) of 91.6% and an IC50 ([2]; Hepatitis B virus, wt HBV, ds HBV DNA bands, HepG2 cells) of 80 nM. For the same compound, the “Resistance Factor” value ([2]; {}) was 1, the “change in sensitivity of L526M/M550V” value ([3]; FIG. 8A-8C, result in words) was “no substantial change” and the inhibition at 1 µM ([3]; Hepatitis B virus, HepG2, dual (L526M/M550V) HBV, ds HBV DNA band density vs untreated controls, estimated from fitted curve, negative = stimulation) was 77%. The IC50 ([3]; Hepatitis B virus, dual (L526M/M550V) HBV, ds HBV DNA bands, HepG2 cells) was 160 nM, the “Resistance Factor” value ([3]; {}) was 2 and the IC50 [4, 11] was 0.09 µM. The IC50 [4, 12] was 0.28 µM, the IC50 ([5]; Hepatitis B virus, HepG2, Precore (G1896A), extracellular relaxed circular HBV DNA, averages where footnoted, read-out: IC50 (μM), EC RC) was 0.025 µM and the IC50 ([5]; Hepatitis B virus, HepG2, Precore (G1896A), extracellular relaxed circular HBV DNA, individual experiments behind the average, read-out: IC50, single experiments, EC RC) was 0.02 µM. The IC50 ([5]; Hepatitis B virus, HepG2, Precore (G1896A), intracellular single-stranded HBV DNA, averages where footnoted, read-out: IC50 (μM), IC SS) was 0.195 µM, the IC50 ([5]; Hepatitis B virus, HepG2, Precore (G1896A), intracellular single-stranded HBV DNA, individual experiments behind the average, read-out: IC50, single experiments, IC SS) was 0.2 µM and the IC50 ([5]; Precore (G1896A), extracellular relaxed circular HBV DNA, individual experiments behind the average, read-out: IC50, single experiments, EC RC) was 0.03 µM. For the same compound, the IC50 ([5]; Precore (G1896A), intracellular single-stranded HBV DNA, individual experiments behind the average, read-out: IC50, single experiments, IC SS) was 0.19 µM, the “sensitivity of G1896A HBV compared with wild type HBV” value ([5]; result in words) was “at least as sensitive” and the “change in sensitivity of L526M compared to wild-type” value ([6]; FIG. 7A-7C, result in words) was “No significant change”. For the same compound, the inhibition at 1 µM ([6]; Hepatitis B virus, HepG2, 526 (L526M) HBV, ds HBV DNA band density vs untreated controls, estimated from fitted curve, negative = stimulation, read-out: Inhibition at 1 μM) was 86.2%, the IC50 ([6]; Hepatitis B virus, 526 (L526M) HBV, ds HBV DNA bands, HepG2 cells, read-out: IC50) was 90 nM and the “Resistance Factor” value ([6]; {}) was 1. For the same compound, the IC50 [7, 11] was 1 µM, the IC50 [7, 12] was 0.47 µM and the inhibition at 1 µM ([8]; Hepatitis B virus, HepG2, 550 (M550I) HBV, ds HBV DNA band density vs untreated controls, estimated from fitted curve, negative = stimulation) was 70%. The IC50 ([8]; Hepatitis B virus, 550 (M550I) HBV, ds HBV DNA bands, HepG2 cells, read-out: IC50) was 310 nM, the “Resistance Factor” value ([8]; {}) was 4 and the IC50 ([9]; Hepatitis B virus, HepG2, WT, extracellular relaxed circular HBV DNA, averages where footnoted, read-out: IC50 (μM), EC RC) was 0.0535 µM. For the same compound, the IC50 ([9]; Hepatitis B virus, HepG2, WT, extracellular relaxed circular HBV DNA, individual experiments behind the average, read-out: IC50, single experiments, EC RC) was 0.06 µM, the IC50 ([9]; Hepatitis B virus, HepG2, WT, intracellular single-stranded HBV DNA, averages where footnoted, read-out: IC50 (μM), IC SS) was 0.235 µM and the IC50 ([9]; Hepatitis B virus, HepG2, WT, intracellular single-stranded HBV DNA, individual experiments behind the average, read-out: IC50, single experiments, IC SS) was 0.25 µM. For the same compound, the IC50 ([9]; WT, extracellular relaxed circular HBV DNA, individual experiments behind the average, read-out: IC50, single experiments, EC RC) was 0.047 µM, the IC50 ([9]; WT, intracellular single-stranded HBV DNA, individual experiments behind the average, read-out: IC50, single experiments, IC SS) was 0.22 µM and the IC50 [10] was 0.94 µM.
